# In BindingDB's records for doi:10.1021/acsmedchemlett.4c00023 (n/a, 2024):
# Biological target: Mitogen-activated protein kinase kinase kinase kinase 1 (Homo sapiens, UniProt Q92918)
# Experiment: Inhibition of full length recombinant human N-terminal GST-tagged HPK1 expressed in baculovirus infected Sf21 insect cells preincubated for 15 mins followed by MBP and ATP addition measured after 120 mins by ADP-Glo reagent based assay
# Mitogen-activated protein kinase kinase kinase kinase 1, sequence (Q92918 whole entry): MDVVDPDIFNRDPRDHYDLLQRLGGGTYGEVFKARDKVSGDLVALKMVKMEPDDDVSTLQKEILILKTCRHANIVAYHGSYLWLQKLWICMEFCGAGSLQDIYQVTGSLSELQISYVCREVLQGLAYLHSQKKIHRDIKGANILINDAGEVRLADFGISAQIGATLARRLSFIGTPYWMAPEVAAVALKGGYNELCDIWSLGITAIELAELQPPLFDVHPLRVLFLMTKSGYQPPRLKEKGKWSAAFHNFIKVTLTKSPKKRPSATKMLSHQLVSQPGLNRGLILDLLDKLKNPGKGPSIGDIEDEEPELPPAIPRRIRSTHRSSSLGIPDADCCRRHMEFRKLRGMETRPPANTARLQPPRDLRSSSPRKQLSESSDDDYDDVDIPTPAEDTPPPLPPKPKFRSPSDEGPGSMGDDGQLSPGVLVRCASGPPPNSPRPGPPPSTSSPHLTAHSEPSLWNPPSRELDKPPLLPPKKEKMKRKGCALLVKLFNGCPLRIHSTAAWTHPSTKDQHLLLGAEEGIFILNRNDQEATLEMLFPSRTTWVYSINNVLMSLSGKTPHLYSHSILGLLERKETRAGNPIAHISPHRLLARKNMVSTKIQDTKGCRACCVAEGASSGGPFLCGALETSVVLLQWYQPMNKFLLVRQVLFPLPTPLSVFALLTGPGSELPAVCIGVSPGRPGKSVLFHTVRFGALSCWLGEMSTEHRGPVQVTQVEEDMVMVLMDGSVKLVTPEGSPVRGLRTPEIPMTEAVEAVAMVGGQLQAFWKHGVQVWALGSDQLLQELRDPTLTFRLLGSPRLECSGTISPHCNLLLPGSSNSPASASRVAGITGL
row,Compound,IC50 [nM]
1,"Cc1c(N2CCc3cnc(Nc4ccc(N5CCN(C)CC5)cc4)nc3C2)cnc2c1NCCO2 [US20240025922, Example 55]",< 100
2,"Cc1c(N2CCc3cnc(Nc4ccc(Cn5nccn5)cc4)nc3C2)cnc2c1NCCO2 [US20240025922, Example 185]",< 100
3,"CCc1c(N2CCc3cnc(Nc4ccc(CS(C)(=O)=O)cc4)nc3C2)cnc2c1NCCO2 [US20240025922, Example 145]",< 100
4,"Cc1c(N2CCc3cnc(Nc4ccc(Cn5cccn5)cc4)nc3C2)cnc2c1NCCO2 [US20240025922, Example 187]",< 100
5,"COC1CCN(c2ccc(Nc3ncc4c(n3)CN(c3cnc5c(c3C)NCCO5)CC4)cc2)CC1 [US20240025922, Example 113]",< 100
6,"Cc1c(N2CCc3cnc(Nc4ccc5c(c4)CCOC5)nc3C2)cnc2c1NCCO2 [US20240025922, Example 84]",< 100
